Experimental data taken from patent US12018014B2, “Pyrrole-substituted indolone derivative or pharmaceutically acceptable salts thereof, and preparation method therefor and application thereof” (SUZHOU GENHOUSE PHARMACEUTICAL CO., LTD., priority 2018, dated 2024).
Marks after values point to notes of the source that are not given here.

Experiments:
[1] = system: human MV-4-11 cell strain; assay: MTS in vitro antiproliferative activity; type: cell-based; details: MV4-11, 72 hours, read-out: IC50, in vitro proliferation of human MV-4-11 cell strain
Procedure: The human acute leukemia cell MV-4-11 is an Flt-3 mutant cell strain. The MTS method was used to determine the in vitro antiproliferative activity of the compound against MV-4-11 (derived from ATCC): trypsinizing the cells in the logarithmic growth phase, counting them, resuspending an appropriate number of the cells in the culture solution, adding the culture solution to the 96-well plate by 150 μL per well, and culturing it overnight. After that, 50 μL of 4-fold serially diluted test compound or control culture solution was added to each well, and cultured for 72 hours. The culture solution was drained, and 120 μL of MTS detection solution (100 μL of fresh culture medium and 20 μL of MTS solution) was added to each well, and incubated at 37° C., and the OD490 value was read. Graphpad Prism5 software was used to analyze and process the data to obtain IC50.

ALK = ALK (Homo sapiens (Human), UniProt Q9UM73); assay: HTRF in vitro tyrosine kinase inhibition; type: biochemical; details: ATP 120 μM, read-out: IC50 against ALK
Procedure: (§1) The in vitro inhibitory activity of the compounds on tyrosine kinase was measured by HTRF (Homogeneous Time-Resolved Fluorescence) method.
(§2) The compounds were serially diluted with DMSO in a 96-well plate into 8 solutions of different concentrations with 100 times the final concentration. Then a buffer solution, which was prepared by adding 5 mM MgCl2 and 1 mM DTT to 1-fold Enzymetic buffer provided by the kit, was diluted in a 96-well plate into a solution with 5 times the final concentration.
(§3) The diluted compounds were added to a 384-well plate, respectively, and double wells were provided for each concentration. Then 0.25 ng of kinase was added per well. At the same time, negative and positive wells were provided, and the well to which 5% DMSO of the same volume was added was taken as control. […] Preincubation was carried out for 10 minutes at room temperature. A substrate with a final concentration of 1 μM and ATP with a final concentration of 120 μM were added, and incubated at room temperature for 90 minutes. Then, a fluorescent acceptor (XL665 labeled streptavidin) with a final concentration of 0.0625 μM and 1-fold fluorescent donor (Europium cryptate labeled TK antibody) with a final concentration of 0.0625 μM were added, and incubated at room temperature for 60 minutes. The plates were read by a microplate reader under the conditions of λex=330 nm, λem=620 nm and λem=665 nm. A ratio between the reading at 665 nm and the reading at 620 nm was calculated, and the inhibition rate was calculated according to this ratio.

FGFR1 = FGFR1 (Homo sapiens (Human), UniProt P11362); assay: HTRF in vitro tyrosine kinase inhibition; type: biochemical; details: ATP 120 μM, read-out: IC50 against FGFR1
FGFR1, sequence (P11362 22-822, species assumed): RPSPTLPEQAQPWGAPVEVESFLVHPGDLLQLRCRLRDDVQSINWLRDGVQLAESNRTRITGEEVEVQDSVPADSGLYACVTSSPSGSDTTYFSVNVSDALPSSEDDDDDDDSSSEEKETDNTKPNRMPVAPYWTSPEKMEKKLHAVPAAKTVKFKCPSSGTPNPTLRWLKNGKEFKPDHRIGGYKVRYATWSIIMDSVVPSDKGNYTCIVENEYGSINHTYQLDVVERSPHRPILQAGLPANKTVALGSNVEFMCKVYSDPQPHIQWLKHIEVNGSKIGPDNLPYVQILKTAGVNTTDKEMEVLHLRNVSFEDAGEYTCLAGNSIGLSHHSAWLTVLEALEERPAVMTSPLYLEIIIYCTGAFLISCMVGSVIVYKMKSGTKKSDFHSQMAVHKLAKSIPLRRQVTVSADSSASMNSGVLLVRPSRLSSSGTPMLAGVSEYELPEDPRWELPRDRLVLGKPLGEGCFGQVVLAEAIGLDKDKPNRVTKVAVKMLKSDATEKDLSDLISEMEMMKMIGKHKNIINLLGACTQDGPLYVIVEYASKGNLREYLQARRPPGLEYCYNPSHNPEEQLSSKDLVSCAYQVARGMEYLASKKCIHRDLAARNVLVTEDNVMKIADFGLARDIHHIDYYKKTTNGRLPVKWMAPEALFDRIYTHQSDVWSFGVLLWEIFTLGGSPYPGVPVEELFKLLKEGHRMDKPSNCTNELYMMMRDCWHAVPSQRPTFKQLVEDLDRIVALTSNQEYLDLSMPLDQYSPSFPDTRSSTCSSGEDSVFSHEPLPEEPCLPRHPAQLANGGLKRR
Procedure: as §1, §2, §3

FLT3 = FLT3 (Homo sapiens (Human), UniProt P36888); assay: HTRF in vitro tyrosine kinase inhibition; type: biochemical; details: ATP 120 μM, read-out: IC50 against FLT3
Procedure: as §1, §2, §3

FLT3 D835Y = FLT3 D835Y (Homo sapiens (Human), UniProt P36888, D835Y); assay: HTRF in vitro tyrosine kinase inhibition; type: biochemical; details: ATP 120 μM, read-out: IC50 against FLT3 D835Y
Procedure: as §1, §2, §3

FLT3-ITD = FLT3-ITD (Homo sapiens, UniProt P36888, ITD); assay: HTRF in vitro tyrosine kinase inhibition; type: biochemical
Procedure: as §1, §2, §3

KDR (VEGFR2) = KDR (VEGFR2) (Homo sapiens (Human), UniProt P35968); assay: HTRF in vitro tyrosine kinase inhibition; type: biochemical; details: ATP 120 μM, read-out: IC50 against KDR
KDR (VEGFR2), sequence (P35968 20-1356): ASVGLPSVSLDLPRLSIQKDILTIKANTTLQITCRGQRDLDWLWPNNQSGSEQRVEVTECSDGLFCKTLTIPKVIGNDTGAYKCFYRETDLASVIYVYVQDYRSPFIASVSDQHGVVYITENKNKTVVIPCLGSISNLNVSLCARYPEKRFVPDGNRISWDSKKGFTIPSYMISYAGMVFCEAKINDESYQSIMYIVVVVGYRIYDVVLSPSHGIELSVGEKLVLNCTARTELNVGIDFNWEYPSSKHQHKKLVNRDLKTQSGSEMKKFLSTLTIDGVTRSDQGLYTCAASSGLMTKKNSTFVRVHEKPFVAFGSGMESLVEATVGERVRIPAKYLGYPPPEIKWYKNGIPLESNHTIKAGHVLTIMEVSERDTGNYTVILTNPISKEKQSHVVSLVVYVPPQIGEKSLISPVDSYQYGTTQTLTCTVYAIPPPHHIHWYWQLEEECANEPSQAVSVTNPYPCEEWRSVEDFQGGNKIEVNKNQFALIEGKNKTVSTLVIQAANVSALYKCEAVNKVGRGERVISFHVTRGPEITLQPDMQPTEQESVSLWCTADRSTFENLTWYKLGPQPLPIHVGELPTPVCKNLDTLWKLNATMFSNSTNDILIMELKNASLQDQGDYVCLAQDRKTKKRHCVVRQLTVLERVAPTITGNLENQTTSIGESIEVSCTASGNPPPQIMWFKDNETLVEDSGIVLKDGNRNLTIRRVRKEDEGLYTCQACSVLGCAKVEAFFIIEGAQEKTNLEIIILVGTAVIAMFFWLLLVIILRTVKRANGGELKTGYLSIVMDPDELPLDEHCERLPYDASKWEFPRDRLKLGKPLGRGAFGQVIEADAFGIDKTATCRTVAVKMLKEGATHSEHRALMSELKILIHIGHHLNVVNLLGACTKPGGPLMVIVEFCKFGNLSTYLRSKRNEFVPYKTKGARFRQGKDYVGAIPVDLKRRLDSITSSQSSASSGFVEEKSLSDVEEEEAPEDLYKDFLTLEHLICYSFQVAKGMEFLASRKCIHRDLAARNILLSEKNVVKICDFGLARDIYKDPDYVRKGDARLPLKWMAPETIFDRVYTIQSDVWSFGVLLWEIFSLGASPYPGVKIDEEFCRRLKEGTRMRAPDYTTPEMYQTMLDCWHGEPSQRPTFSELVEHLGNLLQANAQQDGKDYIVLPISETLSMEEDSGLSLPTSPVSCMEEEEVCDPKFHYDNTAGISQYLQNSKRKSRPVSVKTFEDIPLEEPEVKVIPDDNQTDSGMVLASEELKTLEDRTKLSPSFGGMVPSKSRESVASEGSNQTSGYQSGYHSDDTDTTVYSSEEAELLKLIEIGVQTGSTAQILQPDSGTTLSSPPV
Procedure: as §1, §2, §3

PDGFRβ = PDGFRβ (Homo sapiens (Human), UniProt P09619); assay: HTRF in vitro tyrosine kinase inhibition; type: biochemical; details: ATP 120 μM, read-out: IC50 against PDGFRβ
Procedure: as §1, §2, §3

RET = RET (Homo sapiens (Human), UniProt P07949); assay: HTRF in vitro tyrosine kinase inhibition; type: biochemical; details: ATP 120 μM, read-out: IC50 against RET
RET, sequence (P07949 29-1114, species assumed): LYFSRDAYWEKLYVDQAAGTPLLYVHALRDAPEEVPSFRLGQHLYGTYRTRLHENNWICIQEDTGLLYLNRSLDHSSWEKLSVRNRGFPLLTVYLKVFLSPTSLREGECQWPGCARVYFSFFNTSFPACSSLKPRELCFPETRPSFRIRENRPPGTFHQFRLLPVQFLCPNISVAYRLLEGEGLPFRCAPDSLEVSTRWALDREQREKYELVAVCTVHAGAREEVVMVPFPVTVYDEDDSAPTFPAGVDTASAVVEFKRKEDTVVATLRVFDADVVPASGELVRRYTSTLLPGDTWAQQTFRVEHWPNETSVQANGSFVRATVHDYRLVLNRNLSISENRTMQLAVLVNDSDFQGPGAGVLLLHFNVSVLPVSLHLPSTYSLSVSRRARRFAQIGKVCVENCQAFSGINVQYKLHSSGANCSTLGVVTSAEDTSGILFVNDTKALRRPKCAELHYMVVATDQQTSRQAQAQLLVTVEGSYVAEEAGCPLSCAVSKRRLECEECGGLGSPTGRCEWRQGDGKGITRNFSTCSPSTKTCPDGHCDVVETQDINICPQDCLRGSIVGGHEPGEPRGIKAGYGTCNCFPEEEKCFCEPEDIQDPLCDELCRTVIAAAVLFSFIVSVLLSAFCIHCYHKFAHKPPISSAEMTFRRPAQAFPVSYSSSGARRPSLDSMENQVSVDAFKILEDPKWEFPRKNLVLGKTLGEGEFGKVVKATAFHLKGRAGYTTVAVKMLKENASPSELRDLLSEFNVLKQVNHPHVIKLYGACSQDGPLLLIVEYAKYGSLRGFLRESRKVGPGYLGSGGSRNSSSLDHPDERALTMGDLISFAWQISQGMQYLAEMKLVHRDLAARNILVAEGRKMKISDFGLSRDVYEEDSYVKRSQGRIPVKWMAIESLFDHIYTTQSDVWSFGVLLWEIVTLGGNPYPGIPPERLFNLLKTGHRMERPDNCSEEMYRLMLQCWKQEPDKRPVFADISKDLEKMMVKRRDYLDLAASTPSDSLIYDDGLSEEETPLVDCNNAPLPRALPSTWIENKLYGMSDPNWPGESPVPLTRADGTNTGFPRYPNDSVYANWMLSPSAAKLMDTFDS
Procedure: as §1, §2, §3

c-Kit = c-Kit (Homo sapiens (Human), UniProt P10721); assay: HTRF in vitro tyrosine kinase inhibition; type: biochemical; details: ATP 120 μM, read-out: IC50 against c-Kit
c-Kit, sequence (P10721 26-976): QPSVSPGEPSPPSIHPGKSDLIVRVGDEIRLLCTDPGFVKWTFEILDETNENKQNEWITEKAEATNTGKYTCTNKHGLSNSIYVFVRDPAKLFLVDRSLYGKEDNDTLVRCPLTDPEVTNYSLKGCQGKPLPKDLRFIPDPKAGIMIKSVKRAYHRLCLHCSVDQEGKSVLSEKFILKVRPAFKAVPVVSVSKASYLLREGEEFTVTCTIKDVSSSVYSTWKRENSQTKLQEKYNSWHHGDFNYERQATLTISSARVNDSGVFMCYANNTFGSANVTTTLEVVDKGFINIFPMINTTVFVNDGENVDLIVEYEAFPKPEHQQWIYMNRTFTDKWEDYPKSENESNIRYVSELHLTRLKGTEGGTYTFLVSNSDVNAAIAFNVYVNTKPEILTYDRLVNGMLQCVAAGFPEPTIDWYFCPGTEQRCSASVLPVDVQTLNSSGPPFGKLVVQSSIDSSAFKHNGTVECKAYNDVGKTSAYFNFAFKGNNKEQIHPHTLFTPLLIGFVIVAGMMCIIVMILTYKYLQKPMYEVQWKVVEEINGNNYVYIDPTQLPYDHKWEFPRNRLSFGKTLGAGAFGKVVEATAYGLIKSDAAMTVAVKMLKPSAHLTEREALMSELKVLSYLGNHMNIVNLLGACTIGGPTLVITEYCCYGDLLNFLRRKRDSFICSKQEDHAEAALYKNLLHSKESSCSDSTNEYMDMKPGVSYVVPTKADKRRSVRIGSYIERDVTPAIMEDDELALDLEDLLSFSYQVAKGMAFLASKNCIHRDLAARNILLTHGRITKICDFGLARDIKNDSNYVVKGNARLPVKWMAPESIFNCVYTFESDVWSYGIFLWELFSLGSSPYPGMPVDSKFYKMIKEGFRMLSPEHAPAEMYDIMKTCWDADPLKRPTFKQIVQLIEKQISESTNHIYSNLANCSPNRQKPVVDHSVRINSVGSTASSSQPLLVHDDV
Procedure: as §1, §2, §3

[2] = system: MV-4-11 transplanted tumor; assay: MV-4-11 subcutaneously transplanted tumor in nude mice; type: in vivo, Balb/c nude mice; details: for Average volume of tumor d15: d15 (start of administration); for Average volume of tumor d15 / Average volume of tumor d36: mean ± S.E, n=6; for Average volume of tumor d36 / anti-tumor effect (in words): 21 days
Source text: The formula of calculating the tumor volume (TV) is TV=½×a×b^2, where a represents the long diameter of the tumor and b represents the short diameter of the tumor.

[3] = Toxicity and animal's weight in MV-4-11 nude mouse study; details: 80 mg/kg intragastric, 21 days
Procedure: MV-4-11 cells (FLT3-ITD mutant human acute biphenotypic myeloid leukemia cell strain, ATCC) were cultured and expanded in vitro, and the cells in the logarithmic growth phase were collected and resuspended in a serum-free EMEM culture solution, and the cell suspension was injected subcutaneously with a syringe into the armpit of the front right limb of male Balb/c nude mice.

[4] = system: MV-4-11 (FLT3-ITD) xenograft tumor; details: oral 20 mg/kg/d; cited from earlier work
[5] = 29 AML patients, single dose 50 mg to 350 mg; cited from earlier work
FLT3 phosphorylation = details: dose of no less than 200 mg; cited from earlier work
[6] = system: relapsed or refractory AML; details: cited from earlier work
[7] = 10 mg/kg intragastric once a day
[8] = 80 mg/kg intragastric once a day

Q: With Cc1[nH]c(/C=C2\C(=O)Nc3ccc(F)cc32)c(C)c1NC(=O)N1CCN(C)CC1 [Compound 2] as the molecule, how does the IC50 [1] read?
A: 178 nM

Q: With CCN1CCN(C(=O)Nc2c(C)[nH]c(/C=C3\C(=O)Nc4ccc(F)cc43)c2C)CC1 [Compound 3] as the molecule, how does the IC50 [1] read?
A: 138 nM

Q: Which results are given for CNC1CCN(C(=O)Nc2c(C)[nH]c(/C=C3\C(=O)Nc4ccc(F)cc43)c2C)CC1.Cl [Compound 5]?
A: IC50 (ALK): 4900 nM; IC50 (FGFR1): 2340 nM; IC50 (FLT3): 8.8 nM; IC50 (FLT3 D835Y): 17.3 nM; IC50 (FLT3-ITD): < 1.5 nM; IC50 (KDR (VEGFR2)): 891 nM; IC50 (PDGFRβ): 190 nM; IC50 (RET): 110 nM; IC50 (c-Kit): 286 nM; IC50 [1]: 66 nM; Average volume of tumor d15 ([2]; 2.5 mg/kg group): 167.76 ± 11.65 mm^3; Average volume of tumor d36 ([2]; 2.5 mg/kg intragastric once a day, hydrochloride): 359.18 ± 49.62** mm^3; anti-tumor effect (in words) ([2]; 2.5 mg/kg intragastric): notable inhibition on the growth of the transplanted tumor; Average volume of tumor d15 ([2]; 5 mg/kg group): 167.69 ± 11.70 mm^3; Average volume of tumor d36 ([2]; 5 mg/kg intragastric once a day, hydrochloride): 34.71 ± 4.32** mm^3; Average volume of tumor d15 ([2]; 10 mg/kg group): 167.75 ± 11.59 mm^3; Average volume of tumor d36 [2, 7]: 28.41 ± 3.38** mm^3; Average volume of tumor d15 ([2]; 80 mg/kg group): 167.79 ± 13.04 mm^3; Average volume of tumor d36 [2, 8]: 19.60 ± 4.21** mm^3; Average volume of tumor d15 ([2]; 160 mg/kg group): 167.59 ± 11.93 mm^3; Average volume of tumor d36 ([2]; 160 mg/kg intragastric once a day, hydrochloride): 20.74 ± 1.38** mm^3; anti-tumor effect (in words) ([2]; dose of no less than 5 mg/kg intragastric): the transplanted tumor subsided

Q: With Cc1[nH]c(/C=C2\C(=O)Nc3ccc(F)cc32)c(C)c1NC(=O)NC1CCN(C)CC1 [Compound 7] as the molecule, how does the IC50 [1] read?
A: 82.2 nM

Q: With CCN(CC)CCNC(=O)c1c(C)[nH]c(/C=C2\C(=O)Nc3ccc(F)cc32)c1C [Sunitinib] as the molecule, how does the IC50 [1] read?
A: 74.3 nM

Q: What about the “Average volume of tumor d15” value ([2]; 10 mg/kg group) of the same molecule?
A: 167.64 ± 12.88 mm^3

Q: And the “Average volume of tumor d36” value [2, 7]?
A: 178.93 ± 13.89** mm^3

Q: What about the “Average volume of tumor d15” value ([2]; 80 mg/kg group) of the same molecule?
A: 167.62 ± 13.27 mm^3

Q: What about the “Average volume of tumor d36” value [2, 8] of the same molecule?
A: 22.17 ± 1.95** mm^3

Q: What about the “animal's weight (in words)” value [3] of the same molecule?
A: decreased significantly

Q: What about the “tumor inhibitory effect (in words)” value [4] of the same molecule?
A: significant tumor inhibitory effect

Q: And the “patients with drug-related adverse reactions” value [5]?
A: 31%

Q: And the “patients with strong inhibitory effect on FLT3 phosphorylation” value (FLT3 phosphorylation)?
A: more than 50%

Q: And the “toxic reaction (in words)” value ([6]; 75 mg group)?
A: grade 4 dose-limiting fatigue and hypertension

Q: And the morphological reaction ([6]; 16 patients, 50 or 75 mg·d^−1)?
A: 1 case

Q: And the “partial reaction (PR)” value ([6]; 16 patients, 50 or 75 mg·d^−1)?
A: 5 cases
